# Tested on: P. falciparum Dd2
# Test: Activity against the Dd2 strain of P. falciparum (SYBR Green I, 72 h)
# Type: cell-based
# Conditions: Plasmodium falciparum, DD2, 72 h, P. falciparum Dd2, 72 h incubation
# Procedure: The Dd2 strain of P. falciparum was cultured in complete medium (RPMI with L-glutamine, 4.3% heat-inactivated O-positive human serum, 2.08 mg/ml albumax, 0.013 mg/ml hypoxanthine, 1.17 mg/ml glucose, 0.18% NaHCO3, 0.031 M Hepes, 2.60 mM NaOH, and 0.043 mg/ml gentamicin) until the parasitemia reached 3-8%. Parasitemia was determined by checking at least 500 red blood cells from a Giemsa-stained blood smear. The Dd2 cultures along with tested O-positive red blood cells were centrifuged at room temperature at 2,000 rpm for 5 minutes using an Eppendorf centrifuge 5810R with an A-4-81 rotor. The medium was aspirated off. For the compound screening, a parasite dilution at a 1% parasitemia and 1.0% hematocrit was created with screening medium (RPMI with L-glutamine, 4.16 mg/ml albumax II, 0.013 mg/ml hypoxanthine, 1.73 mg/ml glucose, 0.18% NaHCO3, 0.031 M Hepes, 2.60 mM NaOH, and 0.043 mg/ml gentamicin). The suspension was gassed with 93% nitrogen, 4% carbon dioxide, and 3% oxygen and placed at 37° C. until needed. Using a liquid dispenser, 20 μl of screening medium was dispensed into 384-well, black, clear-bottom plates. With a PinTool, 100 nl of compounds dissolved in DMSO was transferred into the assay plates along with control compound (mefloquine). Next, 30 μl of the parasite suspension in screening medium was then dispensed into the assay plates such that the final parasitemia was 1% and the final hematocrit was 1.0%. Final concentration of DMSO was 0.125%. Mefloquine at a final concentration of 20 μM and DMSO at a final concentration of 0.125% were used within the assay plates to serve as background and baseline controls, respectively. The assay plates were transferred to incubators (93% nitrogen, 4% carbon dioxide, and 3% oxygen during the 72 h incubation at 37° C.). Ten microliters of detection reagent consisting of 10×SYBR Green I (Invitrogen; supplied in 10,000× concentration) in lysis buffer (20 mM Tris-HCl, 5 mM EDTA, 0.16% Saponin wt/vol, 1.6% Triton X vol/vol) was dispensed into the assay plates. For optimal staining, the assay plates were left at room temperature for 24 h in the dark. The assay plates were read by using an Envision (PerkinElmer) reader, with 505 dichroic mirrors with 485-nm excitation and 530-nm emission settings, and the plate reads were from the bottom.
# By following the above-described protocol, the 50% effective concentration (EC50) for compounds 1-95 was measured against P. falciparum Dd2 and the results are shown in Table 2: […]
row,EC50 [µM],Structure (SMILES)
1,5.17,"COc1ccc(NC(=O)N2CCCCN3[C@H](CO)[C@H](c4ccc(-c5csc(-c6ccccc6)n5)cc4)[C@@H]3C2)cc1 [Compound 39, (8R,9R,10S)-10-(hydroxymethyl)-N-(4-methoxyphenyl)-9-[4-(2-phenyl-1,3-thiazol-4-yl)phenyl]-1,6-diazabicyclo[6.2.0] decane-6-carboxamide]"
2,5.16,"COc1ccc(S(=O)(=O)N2CCCCN3[C@H](CO)[C@H](c4ccc(C#Cc5ccccc5)cc4)[C@@H]3C2)cc1 [Compound 40, [(8R,9R,10S)-6-(4-methoxybenzene-sulfonyl)-9-[4-(2-phenylethynyl)phenyl]-1,6-diazabicyclo[6.2.0]decan-10-yl]methanol]"
3,9.83,"COc1ccc(NC(=O)N2CCCCN3[C@H](CO)[C@H](c4ccc(-c5ccccc5)cc4)[C@@H]3C2)cc1 [Compound 41, (8R,9R,10S)-10-(hydroxymethyl)-N-(4-methoxyphenyl)-9-(4-phenylphenyl)-1,6-diazabicyclo[6.2.0] decane-6-carboxamide]"
4,9.68,"COc1ccc(NC(=O)N2CCCCN3[C@H](CO)[C@H](c4ccc(-c5ccc(F)cc5)cc4)[C@@H]3C2)cc1 [Compound 42, (8R,9R,10S)-9-[4-(4-fluorophenyl)phenyl]-10-(hydroxymethyl)-N-(4-methoxyphenyl)-1,6-diazabicyclo[6.2.0] decane-6-carboxamide]"
5,0.229,"COc1ccc(NC(=O)N2CCCCN3C[C@H](c4ccc(C#Cc5ccccn5)cc4)[C@@H]3C2)cc1 [Compound 43, (8R,9S)-N-(4-methoxyphenyl)-9-{4-[2-(pyridin-2-yl)ethynyl]phenyl}-1,6-diazabicyclo[6.2.0] decane-6-carboxamide]"
6,1.1,"O=C(NC1CCCCC1)N1CCCCN2[C@H](CO)[C@H](c3ccc(C#Cc4ccccc4)cc3)[C@@H]2C1 [Compound 44, (8R,9R,10S)-N-cyclohexyl-10-(hydroxymethyl)-9-[4-(2-phenylethynyl)phenyl]-1,6-diazabicyclo[6.2.0] decane-6-carboxamide]"
7,0.846,"COc1ccc(NC(=O)N2CCCCN3[C@H](CO)[C@H](c4ccc(C#CC5CCCCC5)cc4)[C@@H]3C2)cc1 [Compound 45, (8R,9R,10S)-9-[4-(2-cyclohexylethynyl)phenyl]-10-(hydroxymethyl)-N-(4-methoxyphenyl)-1,6-diazabicyclo[6.2.0] decane-6-carboxamide]"
8,17.8,"COc1ccc(NC(=O)N2CCCCN3[C@H](CO)[C@H](c4ccc(-c5ccccc5F)cc4)[C@@H]3C2)cc1 [Compound 46, (8R,9R,10S)-9-[4-(2-fluorophenyl)phenyl]-10-(hydroxymethyl)-N-(4-methoxyphenyl)-1,6-diazabicyclo[6.2.0] decane-6-carboxamide]"
9,0.023,"COc1ccc(NC(=O)N2C/C=C\CN3[C@H](CO)[C@H](c4ccc(C#Cc5ccccc5)cc4)[C@@H]3C2)cc1 [Compound 47, (8R,9R,10S)-10-(hydroxymethyl)-N-(4-methoxyphenyl)-9-[4-(2-phenylethynyl)phenyl]-1,6-diazabicyclo[6.2.0]dec-3-ene-6-carboxamide]"
10,0.036,"COc1ccc(NC(=O)N2CCCCN3[C@@H](CN)[C@H](c4ccc(C#Cc5ccccc5)cc4)[C@@H]3C2)cc1 [Compound 48, (8R,9S,10R)-10-(aminomethyl)-N-(4-methoxyphenyl)-9-[4-(2-phenylethynyl)phenyl]-1,6-diazabicyclo[6.2.0] decane-6-carboxamide]"

# The next lines start with the molecule.
row,Structure (SMILES),EC50 [µM]
1,"Cc1ccc(-c2ccc([C@@H]3[C@H](CO)N4CCCCN(S(=O)(=O)c5cccc(C)c5)C[C@@H]34)cc2)cc1 [Compound 26, ((8R,9S,10R)-9-(4′-methyl-[1,1′-biphenyl]-4-yl)-6-(m-tolylsulfonyl)-1,6-diazabicyclo[6.2.0]decan-10-yl)methanol]",0.955
2,"O=C(Nc1cccc(F)c1)N1CCCCN2[C@@H](CO)[C@H](c3ccc(C#Cc4cccnc4)cc3)[C@@H]2C1 [Compound 28, (8R,9R,10R)-N-(3-fluorophenyl)-10-(hydroxymethyl)-9-(4-(pyridin-3-ylethynyl)phenyl)-1,6-diazabicyclo[6.2.0] decane-6-carboxamide]",0.368
3,"COc1ccc(C#Cc2ccc([C@@H]3[C@H](CO)N4CCCCN(C(=O)Nc5ccccc5F)C[C@@H]34)cc2)cc1 [Compound 29, (8R,9S,10R)-N-(2-fluorophenyl)-10-(hydroxymethyl)-9-(4-((4-methoxyphenyl)ethynyl)phenyl)-1,6-diazabicyclo[6.2.0] decane-6-carboxamide]",0.898
4,"O=C(Nc1ccccc1)N1CCCCN2[C@H](CO)[C@H](c3ccc(C#Cc4ccccc4)cc3)[C@@H]2C1 [Compound 30, (8R,9R,10S)-10-(hydroxymethyl)-N-phenyl-9-(4-(phenylethynyl)phenyl)-1,6-diazabicyclo[6.2.0] decane-6-carboxamide]",0.042
5,"COc1ccc(NC(=O)N2CCCCN3[C@H](CO)C(c4ccccc4)[C@@H]3C2)cc1 (stereo partly drawn) [Compound 31, (8R,10S)-10-(hydroxymethyl)-N-(4-methoxyphenyl)-9-phenyl-1,6-diazabicyclo[6.2.0] decane-6-carboxamide]",1.82
6,"COc1ccc(NC(=O)N2CCCCN3[C@H](CN4CCN(C)CC4)[C@H](c4ccc(C#Cc5ccccc5)cc4)[C@@H]3C2)cc1 [Compound 32, (8R,9S,10S)-N-(4-methoxyphenyl)-10-[(4-methylpiperazin-1-yl)methyl]-9-[4-(2-phenylethynyl)phenyl]-1,6-diazabicyclo[6.2.0] decane-6-carboxamide]",0.158
7,"COc1ccc(NC(=O)N2CCCCN3[C@H](CN4CCC(C)(O)CC4)[C@H](c4ccc(C#Cc5ccccc5)cc4)[C@@H]3C2)cc1 [Compound 33, (8R,9S,10S)-10-[(4-hydroxy-4-methylpiperidin-1-yl)methyl]-N-(4-methoxyphenyl)-9-[4-(2-phenylethynyl)phenyl]-1,6-diazabicyclo[6.2.0] decane-6-carboxamide]",2.32
8,"COc1ccc(NC(=O)N2CCN3[C@H](CO)[C@H](c4ccc(C#Cc5ccccc5)cc4)[C@@H]3C2)cc1 [Compound 34, (6R,7R,8S)-8-(hydroxymethyl)-N-(4-methoxyphenyl)-7-[4-(2-phenylethynyl)phenyl]-1,4-diazabicyclo[4.2.0] octane-4-carboxamide]",4.66
9,"COc1ccc(NC(=O)N2CCCCN3[C@H](COCC(=O)O)[C@H](c4ccc(C#Cc5ccccc5)cc4)[C@@H]3C2)cc1 [Compound 35, 2-{[(8R,9R,10S)-6-[(4-methoxyphenyl)carbamoyl]-9-[4-(2-phenylethynyl)phenyl]-1,6-diazabicyclo[6.2.0]decan-10-yl]methoxy}acetic acid]",0.065
10,"COc1ccc(C(=O)N2CCCCN3[C@H](CO)[C@H](c4ccc(C#Cc5ccccc5)cc4)[C@@H]3C2)cc1 [Compound 36, [(8R,9R,10S)-6-(4-methoxybenzoyl)-9-[4-(2-phenylethynyl)phenyl]-1,6-diazabicyclo[6.2.0]decan-10-yl]methanol]",7.9
11,"COc1ccc(NC(=O)N2CCCCN3[C@H](CO)[C@H](c4ccc(C#Cc5cccc(F)c5)cc4)[C@@H]3C2)cc1 [Compound 38, (8R,9R,10S)-9-{4-[2-(3-fluorophenyl)ethynyl]phenyl}-10-(hydroxymethyl)-N-(4-methoxyphenyl)-1,6-diazabicyclo[6.2.0] decane-6-carboxamide]",0.015

# — patent publication US11325913B2, “Compounds and methods for the treatment of malaria” (THE BROAD INSTITUTE, INC., priority 2013, dated 2022)
